How the values were obtained:
[1] = test system: HT29 human colon adenocarcinoma cells; experiment: Cytotoxicity, LDH assay, HT29 cells; type: cell-based; settings: Homo sapiens, HT-29; 24 h treatment, 5–100 μg/mL
Method: (§1) Cytotoxic activity was tested on human cancer and normal cells, grouped in three panels, namely: prostate, skin and gastrointestinal. The prostate panel consisted of prostate cancer cell lines Du145 (ATCC HTB-81) and PC3 (ATCC CRL-1435), and prostate epithelial cells PNT-2 (ECACC 95012613). Melanoma cell lines A375 (ATCC CRL-1619) and HTB140 (ATCC Hs 294T) together with skin keratinocytes HaCaT (obtained as a kind gift of prof. Marta Michalik, Department of Cell Biology, Jagiellonian University, Kraków, Poland) were included into the skin panel. The gastrointestinal panel of cells comprised colon cancer cell lines Caco-2 (ATCC HTB-37) and HT29 (ATCC HTB-38). Du145 cells were grown in Modified Eagle’s Medium with low (1.0 g/L) glucose concentration, HT29, PC3 and PNT-2 cells in Dulbecco’s Modified Eagle’s Media: F12 HAM Nutrient Mixture, Caco-2 in Modified Eagle’s Medium with NEAA (no-essential amino acids) while melanoma cells and keratinocytes were maintained in Modified Eagle’s Medium with high (4.5 g/L) glucose concentration. The culture media (all supplied by Sigma-Aldrich Co.; St. Louis, MO, USA) contained antibiotics and 10% fetal bovine serum (FBS). All cultures were maintained at 37 °C, in a humidified, 5% CO2 containing, atmosphere.
(§2) The examined triterpenes were diluted in the culture media from freshly made stock solutions in MeOH (10 mg/mL) to the working concentrations (from 0 to 100 μg/mL).
(§3) Cell viability was determined as it was described previously. Cells suspended in the nutrient medium were transferred into 96-well microtiter plates (density 1.5 × 10^4 per well), and preincubated for 24 h (37 °C, 5% CO2). Then, the culture medium was replaced with the medium containing different concentrations of 1 or 2 (1–100 μg/mL). After 24 h of incubation, viability of the cells was determined using colorimetric lactate dehydrogenase (LDH) assay, in comparison to the controls to which corresponding aliquots of MeOH diluted with culture media were added. Cells grown in the medium without the tested compounds were used as control I (negative) and the positive control (control II) was obtained by incubation of the cells in the medium containing 1% Triton X-100. LDH released from the damaged cells into the cell culture medium was quantified by measuring the absorbance at 490 nm using Synergy II Biotek (BioTek Instruments, Winooski, VT, USA) microplate reader. Cytotoxicities of the examined compounds were calculated as follows: [(absorbance of the tested sample − absorbance of control I)/(absorbance of control II − absorbance of control I)] × 100. Results were means of three independent measurements (± SD). Doxorubicin (Ebewe Pharma GmbH., Unterach, Austria) was used as a reference cytostatic drug. The IC50 values were determined by plotting the percentage viability of the cells versus concentration and the adequate calculations made using AAT Bioquest website program (https://www.aatbio.com/tools/ic50-calculator, accessed on 29 October 2021).

[2] = Cytotoxicity, LDH assay, HT29 cells; type: cell-based, human; settings: human, HT29 colon adenocarcinoma cells, 24 h, mean ± SD of three, read-out: Cell viability HT29
Method: as §1, §2, §3

[3] = test system: PC3 human prostate adenocarcinoma cells; experiment: Cytotoxicity, LDH assay, PC3 cells; type: cell-based; settings: 24 h treatment; for IC50: Homo sapiens, PC-3, 24 h
Method: as §1, §2, §3

[4] = Cytotoxicity, LDH assay, PC3 cells; type: cell-based, human; settings: human, PC3 prostate adenocarcinoma cells, 24 h, mean ± SD of three, read-out: Cell viability PC3
Method: as §1, §2, §3

[5] = Cytotoxicity, LDH assay, DU145 cells; type: cell-based, human; settings: human, DU145 prostate carcinoma cells, 24 h, mean ± SD of three, read-out: Cell viability DU145
Method: as §1, §2, §3

[6] = test system: DU145 human prostate carcinoma cells; experiment: Cytotoxicity, LDH assay, DU145 cells; type: cell-based; settings: 24 h treatment; for IC50: Homo sapiens, DU-145, 24 h
Method: as §1, §2, §3

[7] = Cytotoxicity, LDH assay, Caco-2 cells; type: cell-based, human; settings: human, Caco-2, 24 h, mean ± SD of three, read-out: Cell viability Caco-2
Method: as §1, §2, §3

[8] = test system: HaCaT human immortalized keratinocytes; experiment: Cytotoxicity, LDH assay, HaCaT cells; type: cell-based; settings: Homo sapiens, HaCaT; 24 h treatment, 5–100 μg/mL
Method: as §1, §2, §3

[9] = Cytotoxicity, LDH assay, HaCaT cells; type: cell-based, human; settings: human, 24 h, mean ± SD of three, read-out: Cell viability HaCaT
Method: as §1, §2, §3

[10] = test system: PNT-2 human normal prostate epithelium cells; experiment: Cytotoxicity, LDH assay, PNT-2 cells; type: cell-based
Method: as §1, §2, §3

[11] = Cytotoxicity, LDH assay, PNT-2 cells; type: cell-based, human; settings: human, 24 h, mean ± SD of three, read-out: Cell viability PNT-2
Method: as §1, §2, §3

[12] = test system: A375 human malignant melanoma cells; experiment: Cytotoxicity, LDH assay, A375 cells; type: cell-based; settings: Homo sapiens, A-375; 24 h treatment, 5–100 μg/mL
Method: as §1, §2, §3

[13] = Cytotoxicity, LDH assay, A375 cells; type: cell-based, human; settings: human, A375 malignant melanoma cells, 24 h, mean ± SD of three, read-out: Cell viability A375
Method: as §1, §2, §3

CCC(C)C(=O)OC1C=C2C3C(C)C(C)(O)CC(OC(C)=O)C3(C)CCC2(C)C2(C)CC(OC(C)=O)C3C(C)(C)C(O)C(OC(C)=O)CC3(C)C12 (stereo not drawn) [Compound 1, 2α,6β,22α-triacetoxy-11α-(2-methylbutyryloxy)-urs-12-ene-3α,20β-diol]
IC50 [1]: > 100 µg/mL | viability at 24 h, 5 μg/mL ([2]; 5 μg/mL): 97.04 ± 0.42% | viability at 24 h, 10 μg/mL ([2]; 10 μg/mL): 95.49 ± 0.82% | viability at 24 h, 20 μg/mL ([2]; 20 μg/mL): 90.9 ± 1.37% | viability at 24 h, 30 μg/mL ([2]; 30 μg/mL): 81.5 ± 1.89% | viability at 24 h, 40 μg/mL ([2]; 40 μg/mL): 72.5 ± 1.94% | viability at 24 h, 50 μg/mL ([2]; 50 μg/mL): 64.8 ± 1.69% | viability at 24 h, 100 μg/mL ([2]; 100 μg/mL): 55.2 ± 1.73% | IC50 PC3 ([3]; 5–100 μg/mL): 41.64 µg/mL | IC50 ([3]; 5–100 μg/mL): 41.6 µg/mL | IC50 ([3]; value in brackets, footnote d): 58.1 µM | viability at 24 h, 5 μg/mL ([4]; 5 μg/mL): 96.2 ± 1.04% | viability at 24 h, 10 μg/mL ([4]; 10 μg/mL): 90.7 ± 0.93% | viability at 24 h, 20 μg/mL ([4]; 20 μg/mL): 83.9 ± 1.67% | viability at 24 h, 30 μg/mL ([4]; 30 μg/mL): 74.8 ± 1.17% | viability at 24 h, 40 μg/mL ([4]; 40 μg/mL): 62.6 ± 1.36% | viability at 24 h, 50 μg/mL ([4]; 50 μg/mL): 45.7 ± 1.85% | viability at 24 h, 100 μg/mL ([4]; 100 μg/mL): 28.1 ± 2.31% | viability at 24 h, 5 μg/mL ([5]; 5 μg/mL): 93.19 ± 0.93% | viability at 24 h, 10 μg/mL ([5]; 10 μg/mL): 83.1 ± 1.96% | viability at 24 h, 20 μg/mL ([5]; 20 μg/mL): 70.4 ± 1.69% | viability at 24 h, 30 μg/mL ([5]; 30 μg/mL): 57.2 ± 2.2% | viability at 24 h, 40 μg/mL ([5]; 40 μg/mL): 41.3 ± 1.91% | viability at 24 h, 50 μg/mL ([5]; 50 μg/mL): 27.2 ± 2.28% | viability at 24 h, 100 μg/mL ([5]; 100 μg/mL): 9.87 ± 1.59% | IC50 DU145 ([6]; 5–100 μg/mL): 35.83 µg/mL | IC50 ([6]; 5–100 μg/mL): 35.8 µg/mL | IC50 ([6]; value in brackets, footnote d): 50 µM | viability at 24 h, 5 μg/mL ([7]; 5 μg/mL): 95.55 ± 0.74% | viability at 24 h, 10 μg/mL ([7]; 10 μg/mL): 88.7 ± 0.93% | viability at 24 h, 20 μg/mL ([7]; 20 μg/mL): 78.5 ± 1.94% | viability at 24 h, 30 μg/mL ([7]; 30 μg/mL): 65.9 ± 1.21% | viability at 24 h, 40 μg/mL ([7]; 40 μg/mL): 51.1 ± 2.4% | viability at 24 h, 50 μg/mL ([7]; 50 μg/mL): 35.8 ± 1.32% | viability at 24 h, 100 μg/mL ([7]; 100 μg/mL): 22.2 ± 1.53% | IC50 [8]: > 100 µg/mL | viability at 24 h, 100 μg/mL ([9]; HaCaT immortalized keratinocytes, 100 μg/mL): 56.8 ± 2.2% | viability at 24 h, 5 μg/mL ([9]; HaCaT keratinocytes, 5 μg/mL): 96.52 ± 0.8% | viability at 24 h, 10 μg/mL ([9]; HaCaT keratinocytes, 10 μg/mL): 94.9 ± 1% | viability at 24 h, 20 μg/mL ([9]; HaCaT keratinocytes, 20 μg/mL): 88.37 ± 0.47% | viability at 24 h, 30 μg/mL ([9]; HaCaT keratinocytes, 30 μg/mL): 81.2 ± 1.77% | viability at 24 h, 40 μg/mL ([9]; HaCaT keratinocytes, 40 μg/mL): 74 ± 1.72% | viability at 24 h, 50 μg/mL ([9]; HaCaT keratinocytes, 50 μg/mL): 65.7 ± 1.22% | Reduction of viability of PNT-2 cells ([10]; 100 µg/mL): 41% | IC50 ([10]; Homo sapiens, PNT2, 24 h treatment, 5–100 μg/mL): > 100 µg/mL | viability at 24 h, 10 μg/mL ([11]; PNT-2 normal prostate epithelium cells, 10 μg/mL): 96.77 ± 0.6% | viability at 24 h, 100 μg/mL ([11]; PNT-2 normal prostate epithelium cells, 100 μg/mL): 59 ± 2.2% | viability at 24 h, 5 μg/mL ([11]; PNT-2 prostate epithelial cells, 5 μg/mL): 96.61 ± 0.53% | viability at 24 h, 20 μg/mL ([11]; PNT-2 prostate epithelial cells, 20 μg/mL): 94.59 ± 0.9% | viability at 24 h, 30 μg/mL ([11]; PNT-2 prostate epithelial cells, 30 μg/mL): 91 ± 1.07% | viability at 24 h, 40 μg/mL ([11]; PNT-2 prostate epithelial cells, 40 μg/mL): 83 ± 1.41% | viability at 24 h, 50 μg/mL ([11]; PNT-2 prostate epithelial cells, 50 μg/mL): 70.7 ± 2.58% | IC50 [12]: > 100 µg/mL | viability at 24 h, 5 μg/mL ([13]; 5 μg/mL): 97.23 ± 0.57% | viability at 24 h, 10 μg/mL ([13]; 10 μg/mL): 96.44 ± 0.92% | viability at 24 h, 20 μg/mL ([13]; 20 μg/mL): 92.8 ± 1.11% | viability at 24 h, 30 μg/mL ([13]; 30 μg/mL): 87.2 ± 2.17% | viability at 24 h, 40 μg/mL ([13]; 40 μg/mL): 79.8 ± 2.02% | viability at 24 h, 50 μg/mL ([13]; 50 μg/mL): 70.2 ± 1.39% | viability at 24 h, 100 μg/mL ([13]; 100 μg/mL): 62.6 ± 2.03%
